Laboratory results taken from US10952992B2, “Methods of treating intraocular pressure with activators of Tie-2” (Aerpio Pharmaceuticals, Inc., priority 2015, dated 2021).
Values joined by “and” are separate entries in the source; they are usually repeats but may differ in a detail not shown here. Equal values may be shown once. Where a name gives a salt, the structure may show the parent alone.

Assays:
[1] = Example 2 vitreous humor concentrations; format: in vivo, male New Zealand White rabbits
Experimental: To measure the concentration of Compound 1 in plasma and ocular tissues following topical ocular, subcutaneous, and intravitreal administration, New Zealand White rabbits were administered Compound 1, and plasma and ocular samples were collected at pre-determined time points. Compound 1 formulations were prepared fresh on each day of dosing.
Ocular tissue samples from both eyes of each animal were collected and weights were recorded. Plasma and ocular tissue sample concentrations of Compound 1 were determined by LC-MS/MS.
Animals were anesthetized for ocular (topical) and intravitreal dosing following the 12IA7 IACUC protocol. Each rabbit received a bolus dose of test formulation either via topical ocular administration 3 times daily on Days 1 and 2 (at 0, 6, and 12 hours), and once on Day 3 (at 0 hours) into both eyes; via intravitreal administration into both eyes once on Day 1 (at 0 hours); or via subcutaneous administration 2 times daily on Days 1 and 2 (at 0 and 8 hours) and once daily on Day 3 (at 0 hours). Doses were given within an approximately 1 hour window each day where applicable.
On Day 1, for intravitreal administration, or on Day 3, for topical ocular and subcutaneous administration, at the appropriate ocular tissue collection time points, animals were euthanized and both eyes were enucleated immediately. Following enucleation, each eye was rinsed with phosphate-buffered saline. Ocular tissue samples from both eyes of each animal were collected at predetermined time points and weights were recorded. All the samples were frozen immediately on dry ice, and stored at −60° C. to −80° C. pending bioanalysis.
An LC-MS/MS method was developed for the determination of Compound 1 in rabbit aqueous tissues (plasma, aqueous and vitreous humor) and solid ocular tissue samples. A pre-study standard curve was analyzed to determine the specificity, range, and lower limit of quantitation of the method. Plasma and tissue homogenate study samples were extracted and analyzed. All the samples were treated identically to the standards.
One eight-point standard curve was used in each analytical batch. To be accepted, each batch must have had at least five of eight standards with accuracy within ±20% of nominal, except at the lower limit of quantification (LLOQ), where ±25% was acceptable.

[2] = system: intraocular pressure in normotensive New Zealand White rabbits; assay: Example 3 intraocular pressure after repeated topical and subcutaneous administration (pneumotonometer); format: in vivo
Experimental: To measure the tolerability and effect of Compound 1 (sodium salt) on intraocular pressure following repeated topical and subcutaneous administration, normotensive New Zealand White rabbits were treated with Compound 1 (sodium salt). Animals were acclimated 1 to 2 times per day to the intraocular pressure (IOP) measurement procedures prior to initiation of the study to determine baseline IOP levels. IOP acclimation was performed in the two weeks prior to study start for a total of 5 days. Animals with unacceptable IOP values were excluded from the study. Prior to taking all IOP measurements, 1 to 2 drops of a 0.5% proparacaine solution were applied to the eye as a topical anesthetic. OP measurements were performed with a pneumotonometer. Test and control formulations were administered to the animals once or twice daily topically into both eyes or subcutaneously starting on Day 1 according to TABLE 20 and TABLE 21 below. PM dosing, where applicable, was performed ˜8 hours after AM dosing. IOP measurements were performed twice (AM and PM) at baseline (prior to the start of dosing), twice (AM and PM) on Days 1 and 7, and once daily (AM) on Days 2-6 and Day 8. Prior to taking all IOP measurements, 1 to 2 drops of a 0.5% proparacaine solution were applied to the eye as a topical anesthetic. IOP measurements were performed with a pneumotonometer. AM IOP measurements were performed 2 hours after AM dosing; the only exceptions were Day 8 AM measurements, which were performed 24 hours after the final dose. PM IOP measurements were performed ˜5 hours (baseline and Day 1) or ˜4 hours (Day 7) after AM IOP measurements, prior to PM dosing, with at least 15 minutes elapsing between anesthetic application for PM IOP measurements and PM dosing. The final round of slit-lamp examinations was performed on Day 8.

[3] = Group 3 (subcutaneous 5 mg/kg/dose, suspension), 0.5 hr
[4] = Group 3 (subcutaneous 5 mg/kg/dose, suspension), 2.0 hr, BLOQ = below 0.2 ng/mL
[5] = Group 5 (intravitreal 2.5 mg/eye, suspension), 6.0 hr
[6] = Group 5 (intravitreal 2.5 mg/eye, suspension), 24 hr
[7] = Group 5 (intravitreal 2.5 mg/eye, suspension), 48 hr
[8] = Group 1 (topical ocular 1.2 mg/eye), 0.5 hr
[9] = Group 1 (topical ocular 1.2 mg/eye), 1.0 hr
[10] = Group 1 (topical ocular 1.2 mg/eye), 2.0 hr
[11] = Group 1 (topical ocular 1.2 mg/eye), 4.0 hr
[12] = Group 2 (subcutaneous 5 mg/kg/dose, solution), 0.5 hr
[13] = Group 2 (subcutaneous 5 mg/kg/dose, solution), 1.0 hr
[14] = Group 2 (subcutaneous 5 mg/kg/dose, solution), 2.0 hr, BLOQ = below 0.2 ng/mL
[15] = Group 2 (subcutaneous 5 mg/kg/dose, solution), 4.0 hr, BLOQ = below 0.2 ng/mL
[16] = Group 4 (intravitreal 2.5 mg/eye, solution), 6.0 hr
[17] = Group 4 (intravitreal 2.5 mg/eye, solution), 24 hr
[18] = Group 4 (intravitreal 2.5 mg/eye, solution), 48 hr
[19] = Group 4 (intravitreal 2.5 mg/eye, solution), 72 hr

Structure (SMILES): COC(=O)N[C@@H](Cc1ccccc1)C(=O)N[C@@H](Cc1ccc(NS(=O)(=O)O)cc1)c1csc(-c2cccs2)n1 [Compound 1 free acid]
- vitreous humor Average Conc. [1, 3]: 0.40 ng/g
- vitreous humor Conc. OS [1, 3]: 0.227 ng/mL
- vitreous humor Average Conc. ([1]; Group 3 (subcutaneous 5 mg/kg/dose, suspension), 1.0 hr): 0.41 ng/g
- vitreous humor Conc. OS ([1]; Group 3 (subcutaneous 5 mg/kg/dose, suspension), 1.0 hr, BLOQ = below 0.2 ng/mL): BLOQ
- vitreous humor Conc. OD [1, 4]: BLOQ
- vitreous humor Conc. OS [1, 4]: BLOQ
- vitreous humor Average Conc. ([1]; Group 3 (subcutaneous 5 mg/kg/dose, suspension), 4.0 hr): 0.41 ng/g
- vitreous humor Conc. OD ([1]; Group 3 (subcutaneous 5 mg/kg/dose, suspension), 4.0 hr, BLOQ = below 0.2 ng/mL): BLOQ
- Average Peak Concentration, Vitreous Humor ([1]; Group 3: subcutaneous 5 mg/kg/dose, suspension): 0.40 ng/g
- vitreous humor Average Conc. [1, 5]: 479750 ng/g
- vitreous humor Conc. OD [1, 5]: 592000 ng/mL and 432000 ng/mL
- vitreous humor Average Conc. [1, 6]: 408750 ng/g
- vitreous humor Conc. OD [1, 6]: 296000 ng/mL and 491000 ng/mL
- vitreous humor Conc. OS [1, 6]: 528000 ng/mL and 320000 ng/mL
- vitreous humor Average Conc. [1, 7]: 97800 ng/g
- vitreous humor Conc. OD [1, 7]: 75900 ng/mL and 68300 ng/mL
- vitreous humor Conc. OS [1, 7]: 148000 ng/mL and 99000 ng/mL
- vitreous humor Average Conc. ([1]; Group 5 (intravitreal 2.5 mg/eye, suspension), 72 hr): 65350 ng/g
- Average Peak Concentration, Vitreous Humor ([1]; Group 5: intravitreal 1.54 mg/kg/dose, suspension): 479750 ng/g

Structure (SMILES): COC(=O)N[C@@H](Cc1ccccc1)C(=O)N[C@@H](Cc1ccc(NS(=O)(=O)O)cc1)c1csc(-c2cccs2)n1 [Compound 1 sodium salt]
- vitreous humor Average Conc. [1, 8]: 0.61 ng/g
- vitreous humor Conc. OD [1, 8]: 0.549 ng/mL
- vitreous humor Conc. OS [1, 8]: 0.528 ng/mL and 0.507 ng/mL
- vitreous humor Average Conc. [1, 9]: 2.09 ng/g
- vitreous humor Conc. OD [1, 9]: 1.97 ng/mL and 3.28 ng/mL
- vitreous humor Average Conc. [1, 10]: 3.33 ng/g
- vitreous humor Conc. OD [1, 10]: 1.14 ng/mL
- vitreous humor Conc. OS [1, 10]: 0.950 ng/mL
- vitreous humor Average Conc. [1, 11]: 4.01 ng/g
- vitreous humor Conc. OD [1, 11]: 1.09 ng/mL and 0.551 ng/mL
- vitreous humor Conc. OS [1, 11]: 2.20 ng/mL
- Average Peak Concentration, Vitreous Humor ([1]; Group 1: topical ocular 0.70 mg/kg/dose, solution): 0.61 ng/g
- vitreous humor Average Conc. [1, 12]: 0.83 ng/g
- vitreous humor Conc. OD [1, 12]: 0.77 ng/mL and 0.537 ng/mL
- vitreous humor Conc. OS [1, 12]: 1.03 ng/mL and 0.981 ng/mL
- vitreous humor Average Conc. [1, 13]: 0.45 ng/g
- vitreous humor Conc. OD [1, 13]: 0.252 ng/mL and 0.442 ng/mL
- vitreous humor Conc. OD [1, 14]: BLOQ
- vitreous humor Conc. OS [1, 14]: BLOQ
- vitreous humor Conc. OD [1, 15]: BLOQ
- vitreous humor Conc. OS [1, 15]: BLOQ
- Average Peak Concentration, Vitreous Humor ([1]; Group 2: subcutaneous 5 mg/kg/dose, solution): 0.83 ng/g
- vitreous humor Average Conc. [1, 16]: 988500 ng/g
- vitreous humor Conc. OD [1, 16]: 1450000 ng/mL and 1480000 ng/mL
- vitreous humor Conc. OS [1, 16]: 592000 ng/mL and 432000 ng/mL
- vitreous humor Average Conc. [1, 17]: 349500 ng/g
- vitreous humor Conc. OD [1, 17]: 438000 ng/mL and 406000 ng/mL
- vitreous humor Conc. OS [1, 17]: 295000 ng/mL and 259000 ng/mL
- vitreous humor Average Conc. [1, 18]: 82000 ng/g
- vitreous humor Conc. OD [1, 18]: 85200 ng/mL and 68600 ng/mL
- vitreous humor Conc. OS [1, 18]: 82300 ng/mL and 91900 ng/mL
- vitreous humor Average Conc. [1, 19]: 13450 ng/g
- vitreous humor Conc. OD [1, 19]: 14500 ng/mL and 11700 ng/mL
- vitreous humor Conc. OS [1, 19]: 13500 ng/mL and 14100 ng/mL
- Average Peak Concentration, Vitreous Humor ([1]; Group 4: intravitreal 1.55 mg/kg/dose, solution): 988500 ng/g
- vitreous humor concentrations vs free acid (FIG. 11) ([1]; intravitreal administration, 6 hr post-dosing): higher vitreous humor concentrations
- vitreous humor concentrations vs free acid (FIG. 10) ([1]; subcutaneous administration, 0.5 hr and 1 hr post-dosing): increased vitreous humor concentrations
- vitreous humor concentrations over time (FIG. 9) ([1]; topical ocular administration): increased vitreous humor concentrations
- reduction in IOP values compared to vehicle control ([2]; 10 mg/kg subcutaneous): slightly more consistent
- lower IOP values compared to Group 1 (Vehicle) ([2]; Group 2: 0.45 mg/eye topical BID, over the course of dosing): not
- IOP values compared to Group 1 (Vehicle) ([2]; Group 3: 1.2 mg/eye topical BID, over the course of dosing): lower IOP values
- IOP values compared to Group 1 (Vehicle) ([2]; Group 4: 1.2 mg/eye topical QD, over the course of dosing): lower IOP values
- IOP values compared to Group 1 (Vehicle) ([2]; Group 5: 10 mg/kg subcutaneous BID, early part of the study, difference decreased towards the end): Lower IOP values
- apparent reduction in intraocular pressure values ([2]; Groups 3 and 4 (1.2 mg/eye topical BID, QD), Day 7 and Day 8 (24 hours after the end of dosing)): persisted
- effect on intraocular pressure ([2]; topical 1.2 mg/eye, QD or BID): reduce intraocular pressure
